Measurements as given in ChEMBL document CHEMBL1909046, “DrugMatrix in vitro pharmacology data”.

Assays:
Melanocortin receptor 5 = Melanocortin receptor 5 (Homo sapiens, UniProt P33032); format: cell membranes, HEK293, Membrane; conditions: hek293; further: in other assays of this panel Not Active means under 50% inhibition at 10 µM
[1] = target: Sodium-dependent noradrenaline transporter (Homo sapiens, UniProt P23975); assay: DRUGMATRIX: Norepinephrine Transporter radioligand binding (ligand: [125I] RTI-55); format: cell membranes, MDCK, Membrane; conditions: mdck; Not Active = under 50% inhibition at 10 µM
Sodium-dependent noradrenaline transporter, sequence (P23975 whole entry): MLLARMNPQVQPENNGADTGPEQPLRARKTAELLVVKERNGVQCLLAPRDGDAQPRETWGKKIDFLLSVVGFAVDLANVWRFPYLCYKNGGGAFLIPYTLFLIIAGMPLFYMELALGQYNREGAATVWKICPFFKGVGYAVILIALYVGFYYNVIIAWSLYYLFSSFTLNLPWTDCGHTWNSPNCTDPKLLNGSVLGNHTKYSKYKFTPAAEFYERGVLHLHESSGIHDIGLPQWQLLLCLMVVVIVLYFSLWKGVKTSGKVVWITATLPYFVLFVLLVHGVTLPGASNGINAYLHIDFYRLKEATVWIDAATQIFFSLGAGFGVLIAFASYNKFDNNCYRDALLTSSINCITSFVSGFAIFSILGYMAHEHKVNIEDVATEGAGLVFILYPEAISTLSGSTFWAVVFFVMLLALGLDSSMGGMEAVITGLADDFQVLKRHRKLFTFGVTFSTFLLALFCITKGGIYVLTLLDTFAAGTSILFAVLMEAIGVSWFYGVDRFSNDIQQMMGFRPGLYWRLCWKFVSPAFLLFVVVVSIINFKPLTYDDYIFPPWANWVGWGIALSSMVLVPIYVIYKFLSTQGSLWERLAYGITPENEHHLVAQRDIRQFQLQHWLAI

[2] = DRUGMATRIX: Sodium/nucleoside co-transporter radioligand binding (ligand: nitrobenzylthioinosine); format: cell membranes, Cavia porcellus, Dunkin-Hartley, Cerebral cortex, Membrane; conditions: Not Active = under 50% inhibition at 10 µM
[3] = target: Mitogen-activated protein kinase 3 (Homo sapiens, UniProt P27361); assay: DRUGMATRIX: Protein Serine/Threonine Kinase, ERK1 enzyme inhibition (substrate: Myelin Basic Protein); parameters: species or system Escherichia coli; conditions: Not Active = under 50% inhibition at 10 µM
Mitogen-activated protein kinase 3, sequence (P27361 whole entry): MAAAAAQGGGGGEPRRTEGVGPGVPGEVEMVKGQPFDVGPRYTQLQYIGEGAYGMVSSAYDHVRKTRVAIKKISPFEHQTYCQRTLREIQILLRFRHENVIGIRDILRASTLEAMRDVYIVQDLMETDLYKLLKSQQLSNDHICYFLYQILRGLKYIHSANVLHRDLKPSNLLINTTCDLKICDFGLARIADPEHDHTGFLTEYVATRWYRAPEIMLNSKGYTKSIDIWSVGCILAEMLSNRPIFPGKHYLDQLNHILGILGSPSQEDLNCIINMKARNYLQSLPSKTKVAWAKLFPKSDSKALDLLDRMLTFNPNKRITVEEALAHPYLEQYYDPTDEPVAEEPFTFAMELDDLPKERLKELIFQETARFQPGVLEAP

[4] = target: C-C chemokine receptor type 5 (Homo sapiens, UniProt P51681); format: cell membranes, Membrane; conditions: hek293; further: in other assays of this panel Not Active means under 50% inhibition at 10 µM
C-C chemokine receptor type 5, sequence (P51681 whole entry): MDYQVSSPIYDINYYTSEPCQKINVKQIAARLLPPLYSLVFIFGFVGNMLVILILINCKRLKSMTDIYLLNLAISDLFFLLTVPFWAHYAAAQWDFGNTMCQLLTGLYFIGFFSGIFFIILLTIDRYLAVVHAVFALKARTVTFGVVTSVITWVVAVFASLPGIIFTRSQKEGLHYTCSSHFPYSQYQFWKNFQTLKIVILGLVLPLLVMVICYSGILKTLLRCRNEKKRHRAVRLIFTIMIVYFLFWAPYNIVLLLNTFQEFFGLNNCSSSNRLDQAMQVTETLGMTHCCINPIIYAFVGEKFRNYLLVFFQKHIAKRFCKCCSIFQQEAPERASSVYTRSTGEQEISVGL

Adenosine receptor A3 = target: T1, Adenosine receptor A3 (Homo sapiens, UniProt P0DMS8); format: cell membranes, CHO-K1, Membrane;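 further: radioligand binding assay with AB-MECA serving as the labeled ligand; in other assays of this panel Not Active means under 50% inhibition at 10 µM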
T1 sequence (P0DMS8 whole entry): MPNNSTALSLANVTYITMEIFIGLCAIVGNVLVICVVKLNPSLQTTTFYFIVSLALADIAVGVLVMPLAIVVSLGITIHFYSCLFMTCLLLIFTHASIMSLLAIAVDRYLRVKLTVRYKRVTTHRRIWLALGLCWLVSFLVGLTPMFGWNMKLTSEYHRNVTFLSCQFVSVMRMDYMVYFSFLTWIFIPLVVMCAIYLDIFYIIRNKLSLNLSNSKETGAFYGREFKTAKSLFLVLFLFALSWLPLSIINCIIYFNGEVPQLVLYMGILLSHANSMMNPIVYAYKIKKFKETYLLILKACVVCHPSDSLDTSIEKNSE

Vasopressin V1a receptor = Vasopressin V1a receptor (Homo sapiens, UniProt P37288); format: cell membranes, Membrane; conditions: hek293; further: in other assays of this panel Not Active means under 50% inhibition at 10 µM
Vasopressin V1a receptor, sequence (P37288 whole entry): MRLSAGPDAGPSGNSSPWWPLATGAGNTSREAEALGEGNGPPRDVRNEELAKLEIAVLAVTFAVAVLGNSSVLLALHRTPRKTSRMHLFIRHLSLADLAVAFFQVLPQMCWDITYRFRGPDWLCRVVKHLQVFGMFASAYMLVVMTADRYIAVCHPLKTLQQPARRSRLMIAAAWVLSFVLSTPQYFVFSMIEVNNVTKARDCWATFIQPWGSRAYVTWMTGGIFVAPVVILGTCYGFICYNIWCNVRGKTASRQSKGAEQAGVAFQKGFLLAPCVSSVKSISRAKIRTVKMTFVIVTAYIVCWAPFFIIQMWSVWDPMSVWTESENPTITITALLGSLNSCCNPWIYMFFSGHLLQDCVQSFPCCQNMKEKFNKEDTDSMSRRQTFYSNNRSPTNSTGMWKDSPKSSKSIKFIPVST

Melanocortin receptor 5, sequence (P33032 whole entry): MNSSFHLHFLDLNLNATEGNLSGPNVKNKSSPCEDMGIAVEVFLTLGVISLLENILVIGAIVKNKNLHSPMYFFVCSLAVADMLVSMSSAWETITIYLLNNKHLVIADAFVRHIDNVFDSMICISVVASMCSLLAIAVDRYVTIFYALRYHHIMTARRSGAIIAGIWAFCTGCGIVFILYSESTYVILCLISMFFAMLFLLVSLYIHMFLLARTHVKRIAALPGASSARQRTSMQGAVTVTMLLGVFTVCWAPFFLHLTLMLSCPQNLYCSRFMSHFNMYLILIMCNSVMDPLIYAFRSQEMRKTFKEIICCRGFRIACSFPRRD

| SMILES | IC50 (Melanocortin receptor 5) | IC50 [1] | IC50 [2] | Ki [2] | IC50 [3] | IC50 [4] | IC50 (Adenosine receptor A3; cho-k1) | IC50 (Vasopressin V1a receptor) | IC50 (Adenosine receptor A3; read-out: IC50) | Ki (Adenosine receptor A3; read-out: Ki) |
| --- | --- | --- | --- | --- | --- | --- | --- | --- | --- | --- |
| COc1ccccc1OCC(O)COC(N)=O (stereo not drawn) [METHOCARBAMOL] | Not Active | Not Active | Not Active | Not Active | Not Active | Not Active | Not Active | Not Active | – | – |
| CO[C@@]1(NC(=O)CSCC#N)C(=O)N2C(C(=O)O)=C(CSc3nnnn3C)CS[C@@H]21 [CEFMETAZOLE] | Not Active | Not Active | Not Active | Not Active | Not Active | Not Active | Not Active | Not Active | – | – |
| C=C(CC)C(=O)c1ccc(OCC(=O)O)c(Cl)c1Cl [ETHACRYNIC ACID] | Not Active | Not Active | Not Active | Not Active | Not Active | Not Active | Not Active | Not Active | – | – |
| Oc1ccccc1O [CATECHOL] | Not Active | Not Active | Not Active | Not Active | Not Active | Not Active | Not Active | Not Active | – | – |
| CC(C)(CO)C(O)C(=O)NCCCO (stereo not drawn) [PANTHENOL] | Not Active | Not Active | Not Active | Not Active | Not Active | Not Active | Not Active | Not Active | – | – |
| NC(=O)N1c2ccccc2C=Cc2ccccc21 [CARBAMAZEPINE] | Not Active | Not Active | Not Active | Not Active | Not Active | Not Active | Not Active | Not Active | – | – |
| CN(Cc1cnc2nc(N)nc(N)c2n1)c1ccc(C(=O)N[C@@H](CCC(=O)O)C(=O)O)cc1 [METHOTREXATE] | Not Active | Not Active | Not Active | Not Active | Not Active | Not Active | Not Active | Not Active | – | – |
| O=P1(N(CCCl)CCCl)NCCCO1 (stereo not drawn) [CYCLOPHOSPHAMIDE ANHYDROUS] | Not Active | Not Active | Not Active | Not Active | Not Active | Not Active | Not Active | Not Active | – | – |
| C[C@]12CCC(=O)C=C1CC[C@@H]1[C@@H]2[C@@H](O)C[C@@]2(C)[C@H]1CC[C@]2(O)C(=O)CO [HYDROCORTISONE] | Not Active | – | Not Active | Not Active | Not Active | Not Active | Not Active | Not Active | – | – |
| Cc1cccc(Nc2ccccc2C(=O)O)c1C [MEFENAMIC ACID] | Not Active | Not Active | Not Active | Not Active | Not Active | Not Active | Not Active | Not Active | – | – |
| CCn1cc(C(=O)O)c(=O)c2cc(F)c(N3CCNCC3)nc21 [ENOXACIN] | Not Active | Not Active | Not Active | Not Active | Not Active | Not Active | Not Active | Not Active | – | – |
| Cc1c(N(C)CS(=O)(=O)[O-])c(=O)n(-c2ccccc2)n1C.[Na+] [DIPYRONE SODIUM] | Not Active | Not Active | Not Active | Not Active | – | Not Active | Not Active | Not Active | – | – |
| C#C[C@]1(O)CC[C@H]2[C@@H]3CCC4=Cc5oncc5C[C@]4(C)[C@H]3CC[C@@]21C [DANAZOL] | Not Active | – | Not Active | Not Active | Not Active | Not Active | – | Not Active | 11.2 µM | 6.31 µM |
| CC(=O)O[C@]1(C(C)=O)CC[C@H]2[C@@H]3C=C(C)C4=CC(=O)CC[C@]4(C)[C@H]3CC[C@@]21C [MEGESTROL ACETATE] | Not Active | Not Active | Not Active | Not Active | Not Active | Not Active | Not Active | Not Active | – | – |
| CCOC(=O)n1ccn(C)c1=S [CARBIMAZOLE] | Not Active | Not Active | Not Active | Not Active | Not Active | Not Active | Not Active | Not Active | – | – |
